Assay results as given in patent publication US5691376A, “Substituted biphenyl derivatives” (American Home Products Corporation, priority 1996, dated 1997).
Counter-ions that a name gives are not always drawn.

What was measured:
U937 PDE IV = test: Test procedure No. 3: inhibition of PDE-IV isolated from U937 cells; assay type: biochemical; settings: 1 μM [3H]-cAMP; 37° C.; pH 7.8; linear regression of percent inhibition
[1] = system: PDE IV isolated from dog tracheal muscle; test: Test Procedure No. 1: inhibition of PDE IV from canine tracheal muscle (cAMP metabolism); assay type: biochemical, dog (canine); settings: 1 μM 3H-cAMP, 10 μM CI-930, 30° C.
Procedure: A solution containing PDE IV is prepared from canine tracheal muscle as follows:
The dog is euthanized with an overdose of beuthanasia while under anesthesia induced by a 33 mg/kg IV bolus of Nembutal. The trachealis muscle is removed, cleaned of connective tissue, and minced thoroughly. Three to four grams of tissue is then homogenized in Tris-HCl buffer (pH 7.8) using a Polytron. The homogenate is then centrifuged at 25,000×g (4° C.) for 30 minutes. The supernatant is decanted and filtered through four layers of gauze, and applied to a 40 cm×2 cm DEAE-Sepharose column that is equilibrated with Tris-HCl buffer (pH 7.8). The column is then washed with an additional 240 mL of buffer to remove unbound proteins. PDE is eluted using 450 mL of Tris-HCl buffer containing a linear gradient of 0.0-1.0M Na-acetate (80 mL/hr), and 7.5 mL fractions are collected. Each fraction is assayed for cAMP- and cGMP-metabolizing PDE activity. Fractions eluting at approximately 0.6M Na-acetate, and containing cAMP but not cGMP metabolic activity are pooled and used as a PDE stock solution for assaying PDE IV inhibitory activity.
CI-930 is included as an inhibitor of the cyclic GMP-sensitive, cyclic AMP-selectivePDE (PDE III) that is also present in the PDE IV stock solution when prepared as described above.
The two abovementioned PDE IV inhibition tests were used to determine the PDE IV inhibitory abilities of some of the compounds of the present invention.

PDE IV = test: Test Procedure No. 2: functional PDE IV inhibition, relaxation of carbachol-precontracted tracheal rings with CI-930; assay type: cell-based, guinea pig (Male Hartley); settings: guinea pig tracheal rings precontracted with 1 μM carbachol; CI-930 10 μM; read-out: Test No. 2 IC50 (functional PDE inhibitory test)
Procedure: The following standard test is also employed to assess the abilities of compounds to inhibit PDE IV functionally.
Male Hartley guinea pigs (500-550 g, Charles River) were euthanized by a blow to the head, and the tracheas were removed and placed in aerated physiological salt solution (PSS) containing NaCl ([…]), KH2 PO4 ([…]), KCl (4.74 mM), CaCl2 (2.5 mM), MgSO4.7H2 O ([…]), NaHCO3 (25 mM), dextrose (11.1 mM), cocaine and hydrocortisone (3 μM and 10 μM, respectively, to block intraneural and extraneural uptake mechanisms), propranolol and phentolamine (1 μM and 10 μM, respectively, to block adrenoceptors),indomethacin (2.8 μM; to block spontaneous tension generation), and calcium disodium EDTA (26 μM, as an antioxidant). Tracheal rings were prepared and mounted in 10 ml organ baths for the measurement of isometric tension generation as previously described (Heaslip et al., 1986).
Tracheal relaxation resulting from the inhibition of PDE-IV or PDE-III was assessed by a method similar to that employed by Harris et al. (1989). Tracheal rings were precontracted with 1 μM carbachol until a stable level of tension was obtained (30 min). To explore the inhibition of PDE-IV, tracheal rings were then incubated (45 min) with CI-930 (10 μM), thus inhibiting PDE-III and sensitizing the ring to the relaxant effects of PDE-IV inhibitors. Conversely, the inhibition of tracheal PDE-III was explored using rings pretreated with rolipram (10 μM), and thereby sensitized to PDE-III inhibitors (Harris et al., 1989). The functional inhibition of PDE-IV or PDE-III was determined by adding a test compound to the tissue bath in cumulatively increasing concentrations and monitoring the degree of relaxation induced in the continued presence of CI-930 or rolipram (respectively). After adding the final concentration of test compound to the organ bath, tracheal rings were washed repeatedly with PSS, and allowed to relax to resting tension. Percent relaxations produced by each concentration of test compound were calculated as a percentage relaxation of tension maintained in the presence of the preincubating PDE inhibitor, relative to the final resting tension determined at the end of each experiment.
The two abovementioned PDE IV inhibition tests were used to determine the PDE IV inhibitory abilities of some of the compounds of the present invention. The table below indicates the compounds tested and the results thereof. For each of Tests 1 and 2, the results are given as IC50 s for the compound tested in M concentrations.

Row | SMILES | IC50 ([1]; pH 7.8) [nM] | further results
1 | COc1ccc(-c2ccc(C(=O)NCc3cccnc3)cc2)cc1OC1CCCC1 [Comparative Example 1, 3'-Cyclopentyloxy-4'-methoxy-biphenyl-4(3-methylpryridyl) carboxylic acid amide, reference compound] |  | IC50 (U937 PDE IV): > 1000 nM
2 | COc1ccc(-c2ccc(C(=O)O)cc2)cc1OC1CCCC1 [Example 1, 3'-Cyclopentyloxy-4'-methoxy-biphenyl-4-carboxylic acid] | 245 | IC50 (U937 PDE IV): 230 nM
3 | COc1ccc(-c2ccc(C(N)=O)cc2)cc1OC1CCCC1 [Example 2, 3'-Cyclopentyloxy-4'-methoxy-biphenyl-4-carboxylic acid amide] | 60 | IC50 (PDE IV): 160 nM
4 | COc1ccc(-c2ccc(C(=O)NN)cc2)cc1OC1CCCC1 [Example 3, 3'-Cyclopentyloxy-4'-methoxy-biphenyl-4-carboxylic acid hydrazide] | 58 | IC50 (PDE IV): 66 nM
5 | COc1ccc(-c2cccc(C(=O)NN)c2)cc1OC1CCCC1 [Example 4, 3'-Cyclopentyloxy-4'-methoxy-biphenyl-3-carboxylic acid hydrazide] | 100 | 
6 | COc1ccc(-c2ccc(Cl)cc2)cc1OC1CCCC1 [Example 6, 4-Chloro-3'-Cyclopentyloxy-4'-methoxy-biphenyl] | 100 | IC50 (PDE IV): 12000 nM
7 | COc1ccc(-c2ccc(C=O)cc2)cc1OC1CCCC1 [Example 9, 3'-Cyclopentyloxy-4'-methoxy-biphenyl-4-carbaldehyde] | 20 | IC50 (PDE IV): 23 nM
8 | COc1ccc(-c2ccccc2C=O)cc1OC1CCCC1 [Example 10, 3'-Cyclopentyloxy-4'-methoxy-biphenyl-2-carbaldehyde] | 100 | 
9 | COc1ccc(-c2ccc(C(=O)O)cc2)cc1OC1CCCC1 [Example 17, 3'-Cyclopentyloxy-4'-methoxy-biphenyl-4-carboxylic acid sodium salt] |  | IC50 ([1]; pH 7.8, sodium salt): 110 nM
10 | COC(=O)c1ccc(-c2ccc(OC)c(OC3CCCC3)c2)cc1 [Example 19, 3'-Cyclopentyloxy-4'-methoxy-biphenyl-4-carboxylic acid methyl ester] | 580 | 
11 | COc1ccc(-c2ccc3c(c2)CCCC3=O)cc1OC1CCCC1 [Example 20, 6-(3-Cyclopentyloxy-4-methoxy-phenyl)-3,4-dihydro-2H-naphthalen-1-one] | 59 | 
12 | COc1ccc(-c2ccc(NC(N)=O)cc2)cc1OC1CCCC1 [Example 26, (3'-Cyclopentyloxy-4'-methoxy-biphenyl-4-yl)-urea] | 270 | 
13 | COc1ccc(-c2ccc(NC(C)=O)cc2)cc1OC1CCCC1 [Example 28, N-(3'-Cyclopentyloxy-4'-methoxy-biphenyl-4-yl)-acetamide] | 1000 | 
14 | COc1ccc(-c2cccc(NC(C)=O)c2)cc1OC1CCCC1 [Example 29, N-(3'-Cyclopentyloxy-4'-methoxy-biphenyl-3-yl)-acetamide] | 470 | 
15 | COc1ccc(-c2ccc(C(=O)NO)cc2)cc1OC1CCCC1 [Example 31, 3'-Cyclopentyloxy-4'-methoxy-biphenyl-4-carboxylic acid hydroxylamide] | 100 | 
16 | COc1ccc(-c2ccc(C(=O)O)c(C(=O)O)c2)cc1OC1CCCC1 [Example 32, 3'-Cyclopentyloxy-4'-methoxy-biphenyl-3,4-dicarboxylic acid] | 10000 | 
17 | COC(=O)c1ccc(-c2ccc(OC)c(OC3CCCC3)c2)cc1C(=O)OC [Example 33, 3'-Cyclopentyloxy-4'-methoxy-biphenyl-3,4-dicarboxylic acid dimethyl ester] | 1100 | 
18 | COc1ccc(-c2ccc3c(=O)[nH][nH]c(=O)c3c2)cc1OC1CCCC1 [Example 34, 6-(3'-Cyclopentyloxy-4-methoxyphenyl)-2,3-dihydrophthalizine-1,4-dione] | 49 | 

More lines, in order of falling IC50 ([1]; pH 7.8), values ahead:

Row | IC50 ([1]; pH 7.8) [nM] | SMILES | further results
19 | 730 | COc1ccc(-c2ccc3c(c2)CCC/C3=N\OC(C)=O)cc1OC1CCCC1 [Example 25, E-6-(3-Cyclopentyloxy-4-methoxy-phenyl)-3,4-dihydro-2H-naphthalen-1-one oxime acetate] | 
20 | 610 | COc1ccc(-c2ccc(C(=O)c3ccccc3)cc2)cc1OC1CCCC1 [Example 13, (3'-Cyclopentyloxy-4'-methoxy-biphenyl-4-yl)-phenylmethanone] | 
21 | 550 | COc1ccc(-c2cccc(NC(N)=O)c2)cc1OC1CCCC1 [Example 27, (3'-Cyclopentyloxy-4'-methoxy-biphenyl-3-yl)-urea] | 
22 | 330 | COc1ccc(-c2ccc(N)cc2)cc1OC1CCCC1 [Example 16, 3'-Cyclopentyloxy-4'-methoxybiphenyl-4-ylamine] | 
23 | 290 | COc1ccc(-c2ccc3c(c2)CCC/C3=N\O)cc1OC1CCCC1 [Example 21, (E)-6-(3-Cyclopentyloxy-4-methoxy-phenyl)-3,4-dihydro-2H-naphthalen-1-one oxime] | 
24 | 86 | COc1ccc(-c2ccc(C(C)=O)cc2)cc1OC1CCCC1 [Example 12, 1-(3'-Cyclopentyloxy-4'-methoxy-biphenyl-4-yl)-ethanone] | 
25 | 84 | COc1ccc(-c2cccc(C#N)c2)cc1OC1CCCC1 [Example 14, 3'-Cyclopentyloxy-4'-methoxy-biphenyl-3-carbonitrile] | 
26 | 39 | COc1ccc(-c2cccc(C=NO)c2)cc1OC1CCCC1 [Example 23, 3'-Cyclopentyloxy-4'-methoxy-biphenyl-3-carbaldehyde oxime] | IC50 (PDE IV): 1900 nM
27 | 36 | COc1ccc(-c2ccc(C=NO)cc2)cc1OC1CCCC1 [Example 22, 3'-Cyclopentyloxy-4'-methoxy-biphenyl-4-carbaldehyde oxime] | IC50 (PDE IV): 140 nM
28 | 34 | COc1ccc(-c2cccc(C=O)c2)cc1OC1CCCC1 [Example 8, 3'-Cyclopentyloxy-4'-methoxy-biphenyl-3-carbaldehyde] | IC50 (PDE IV): 330 nM
29 | 31 | COC(=O)c1cccc(-c2ccc(OC)c(OC3CCCC3)c2)c1 [Example 18, 3'-Cyclopentyloxy-4'-methoxy-biphenyl-3-carboxylic acid methyl ester] | IC50 (PDE IV): 230 nM
30 | 23 | COc1ccc(-c2cccc(C(=O)O)c2)cc1OC1CCCC1 [Example 5, 3'-Cyclopentyloxy-4'-methoxy-biphenyl-3-carboxylic acid] | IC50 (PDE IV): 61 nM
31 | 16 | COc1ccc(-c2cccc(C(N)=O)c2)cc1OC1CCCC1 [Example 30, 3'-Cyclopentyloxy-4'-methoxy-biphenyl-3-carboxylic acid amide] | 
32 | 4.3 | COc1ccc(-c2cccc(C(C)=O)c2)cc1OC1CCCC1 [Example 11, 1-(3'-Cyclopentyloxy-4'-methoxy-biphenyl-3-yl)-ethanone] | 
